In test [1] the target is T1, Short transient receptor potential channel 4 (Mus musculus, UniProt Q9QUQ5).
T1 sequence (Q9QUQ5 whole entry): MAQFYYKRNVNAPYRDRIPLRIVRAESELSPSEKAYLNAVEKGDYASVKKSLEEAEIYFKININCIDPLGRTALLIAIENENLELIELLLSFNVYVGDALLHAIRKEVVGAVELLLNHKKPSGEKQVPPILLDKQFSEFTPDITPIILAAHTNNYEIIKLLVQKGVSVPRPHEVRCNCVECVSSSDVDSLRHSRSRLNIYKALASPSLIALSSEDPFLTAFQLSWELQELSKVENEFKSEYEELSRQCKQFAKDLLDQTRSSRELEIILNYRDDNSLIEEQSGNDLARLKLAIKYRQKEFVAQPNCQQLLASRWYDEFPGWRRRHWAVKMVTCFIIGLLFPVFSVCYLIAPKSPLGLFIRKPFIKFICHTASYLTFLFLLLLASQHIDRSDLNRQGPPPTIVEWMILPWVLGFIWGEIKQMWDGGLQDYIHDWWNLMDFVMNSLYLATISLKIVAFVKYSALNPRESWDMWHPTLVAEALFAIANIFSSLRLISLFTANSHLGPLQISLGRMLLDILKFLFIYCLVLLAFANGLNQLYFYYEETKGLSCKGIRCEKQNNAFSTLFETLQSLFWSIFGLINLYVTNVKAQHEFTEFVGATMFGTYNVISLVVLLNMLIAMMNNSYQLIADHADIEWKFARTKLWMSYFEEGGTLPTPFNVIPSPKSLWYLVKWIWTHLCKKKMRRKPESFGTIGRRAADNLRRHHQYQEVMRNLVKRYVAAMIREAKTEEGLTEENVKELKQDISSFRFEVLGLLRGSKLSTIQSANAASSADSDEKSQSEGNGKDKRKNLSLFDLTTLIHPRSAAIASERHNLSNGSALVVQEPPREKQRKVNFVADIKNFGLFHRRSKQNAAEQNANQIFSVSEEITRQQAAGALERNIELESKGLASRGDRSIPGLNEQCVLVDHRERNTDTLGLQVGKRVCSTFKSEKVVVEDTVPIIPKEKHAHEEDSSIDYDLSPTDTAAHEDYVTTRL
In words: calcium entry via TRPC4 opening agents – cell-based, HEK293 TRPC4/mu-opioid, Fluo-4 calcium, dose response (AID 434937). The class given is functional.

Test [2] concerns the target 5-hydroxytryptamine receptor 5A (Homo sapiens, UniProt P47898). Kind of test: Counterscreen for agonists of OPRM1-OPRD1 heterodimerization: luminescence-based cell-based high throughput dose response assay to identify agonists of 5-hydroxytryptamine (serotonin) 5A receptor (HTR5A). [Related pubchem assays (depositor defined):AID504326, AID504355, AID504692, AID504904, AID504905]. Format: functional.

The target in test [3] is Opioid receptors; mu & delta (Homo sapiens, UniProt P41143+P35372). In words: OPRM1-OPRD1 heterodimer agonist potency – cell-based, luminescence, dose response (AID 588407). The class given is functional.
The target in a further test is Mu-type opioid receptor (Homo sapiens, UniProt P35372). In words: Counterscreen for agonists of heterodimerization of the mu 1 (OPRM1) and delta 1 (OPRD1) opioid receptors: Luminescence-based cell-based high throughput dose response assay to identify agonists of OPRM1 homodimerization. The class given is functional.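 Note: U2OS cells expressing OPRM1 and beta-arrestin as split beta-galactosidase partners.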
Chain of Mu-type opioid receptor (P35372 whole entry): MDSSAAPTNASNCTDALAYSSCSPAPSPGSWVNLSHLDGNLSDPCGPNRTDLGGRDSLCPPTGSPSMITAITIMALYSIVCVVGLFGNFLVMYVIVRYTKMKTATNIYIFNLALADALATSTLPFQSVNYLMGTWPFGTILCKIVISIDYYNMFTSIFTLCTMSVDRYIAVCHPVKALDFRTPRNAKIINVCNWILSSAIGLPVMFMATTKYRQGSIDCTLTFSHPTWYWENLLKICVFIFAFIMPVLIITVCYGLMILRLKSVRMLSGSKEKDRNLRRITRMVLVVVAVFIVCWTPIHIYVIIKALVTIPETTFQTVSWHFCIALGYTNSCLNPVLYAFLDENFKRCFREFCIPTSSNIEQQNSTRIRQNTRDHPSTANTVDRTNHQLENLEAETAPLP
Test [4] has as its target Delta-type opioid receptor (Homo sapiens, UniProt P41143). In words: Counterscreen for agonists of heterodimerization of the mu 1 (OPRM1) and delta 1 (OPRD1) opioid receptors: Luminescence-based cell-based high throughput dose response assay to identify agonists of OPRD1 homodimerization. [Related pubchem assays (depositor defined):AID504326, AID504355, AID504692, AID504904, AID504905]. The class given is functional.

For test [5], the target named is Voltage-gated inwardly rectifying potassium channel KCNH2 (Homo sapiens, UniProt Q12809). The settings on record: Potency.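 Note: confirmatory quantitative high-throughput screen measuring inhibition of hERG channel activity.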
Chain of Voltage-gated inwardly rectifying potassium channel KCNH2 (Q12809 whole entry): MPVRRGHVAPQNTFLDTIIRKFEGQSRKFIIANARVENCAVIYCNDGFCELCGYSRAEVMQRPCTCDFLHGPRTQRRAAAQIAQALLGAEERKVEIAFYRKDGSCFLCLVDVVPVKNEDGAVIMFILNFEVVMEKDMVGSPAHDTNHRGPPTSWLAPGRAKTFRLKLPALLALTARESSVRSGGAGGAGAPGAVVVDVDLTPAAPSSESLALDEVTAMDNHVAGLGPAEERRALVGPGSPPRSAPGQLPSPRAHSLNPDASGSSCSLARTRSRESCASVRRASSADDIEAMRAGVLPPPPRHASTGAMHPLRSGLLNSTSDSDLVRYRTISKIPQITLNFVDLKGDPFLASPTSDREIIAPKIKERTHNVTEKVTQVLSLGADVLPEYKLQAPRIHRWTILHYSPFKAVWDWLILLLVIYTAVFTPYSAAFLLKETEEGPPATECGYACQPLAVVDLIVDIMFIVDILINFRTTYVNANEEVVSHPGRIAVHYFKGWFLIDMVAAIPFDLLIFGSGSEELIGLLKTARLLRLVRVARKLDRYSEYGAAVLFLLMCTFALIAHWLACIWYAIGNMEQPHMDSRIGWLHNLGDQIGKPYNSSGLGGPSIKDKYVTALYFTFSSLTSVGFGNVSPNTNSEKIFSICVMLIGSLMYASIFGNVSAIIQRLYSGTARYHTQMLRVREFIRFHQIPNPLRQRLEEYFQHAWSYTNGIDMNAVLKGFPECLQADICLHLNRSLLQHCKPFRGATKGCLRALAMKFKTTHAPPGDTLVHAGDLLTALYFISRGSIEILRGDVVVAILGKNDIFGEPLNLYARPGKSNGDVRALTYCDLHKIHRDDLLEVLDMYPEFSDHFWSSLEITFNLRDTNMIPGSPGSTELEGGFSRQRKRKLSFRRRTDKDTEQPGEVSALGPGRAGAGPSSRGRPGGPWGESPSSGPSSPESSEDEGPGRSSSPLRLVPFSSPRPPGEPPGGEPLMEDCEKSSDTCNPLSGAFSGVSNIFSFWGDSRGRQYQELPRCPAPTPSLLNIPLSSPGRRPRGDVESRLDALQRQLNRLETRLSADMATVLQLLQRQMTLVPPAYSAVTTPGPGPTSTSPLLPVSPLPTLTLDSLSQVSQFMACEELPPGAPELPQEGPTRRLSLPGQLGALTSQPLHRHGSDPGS
The nature of test [6]: alpha-synuclein stem-loop luciferase translation blockers – H4 neuroglioma cells, luminescence, confirmation (AID 1988). Format: functional, cell-based.
The subject of test [7] is A-375. In words: proliferation inhibition in MITF-low A375 cells – cell-based, cherry-pick samples, set 2, counter-screen for MITF modulator project, dose response (AID 540335). The class given is functional. The note with it: Homo sapiens.
A short description of test [8]: luciferase reporter signal suppression in cells – H4 neuroglioma cells, luminescence, dose response (AID 1990). The class given is functional, cell-based.
The nature of test [9]: Luminescence Cell-Based Dose Response HTS to Identify Inhibitors of 5'UTR Stem-Loop Driven Prion Protein mRNA Translation in H4 Neuroglioblastoma Cells. [Related pubchem assays: 1827 (Project Summary), 1813 (Primary HTS)]. The class given is functional.
Test [10] deals with T2, Microphthalmia-associated transcription factor (Homo sapiens, UniProt O75030).
T2 sequence (O75030 whole entry): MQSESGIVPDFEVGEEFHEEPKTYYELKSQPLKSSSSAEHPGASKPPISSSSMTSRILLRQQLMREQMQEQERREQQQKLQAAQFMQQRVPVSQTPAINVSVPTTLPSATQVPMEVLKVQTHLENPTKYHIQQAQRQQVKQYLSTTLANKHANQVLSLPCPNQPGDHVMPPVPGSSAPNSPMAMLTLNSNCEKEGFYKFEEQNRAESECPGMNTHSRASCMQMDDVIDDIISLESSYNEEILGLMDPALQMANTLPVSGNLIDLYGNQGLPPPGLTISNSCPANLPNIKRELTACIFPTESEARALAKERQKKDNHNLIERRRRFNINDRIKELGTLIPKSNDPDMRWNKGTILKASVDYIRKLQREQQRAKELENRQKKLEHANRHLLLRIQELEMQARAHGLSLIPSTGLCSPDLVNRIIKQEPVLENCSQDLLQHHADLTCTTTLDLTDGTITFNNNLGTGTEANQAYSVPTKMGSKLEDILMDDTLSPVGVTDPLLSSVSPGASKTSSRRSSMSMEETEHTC
In words: reducers of TRPM1 reporter luminescence, concentration series – cell-based, SK-MEL-5, cherry-picked, set 3, MITF inhibitor project, dose response (AID 493073).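 Note: SK-MEL-5 melanoma cells with luciferase driven by the MITF target TRPM1 promoter.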 The class given is functional.

Test [11] has as its system A-375. Kind of test: MITF: Counter assay: A375 proliferation Measured in Cell-Based System Using Plate Reader - 2084-03_Inhibitor_Dose_DryPowder_Activity. [Related pubchem assays (depositor defined):AID488944]. Format: functional. The settings on record: Homo sapiens.
The target of test [12] is Dual specificity protein phosphatase 3 (Homo sapiens, UniProt P51452). In words: SAR VHR1 Fluorescent Assay for In Vitro dose response studies Set 3. [Related pubchem assays (depositor defined):AID1654, AID1661, AID1878]. The class given is functional.
Chain of Dual specificity protein phosphatase 3 (P51452 whole entry): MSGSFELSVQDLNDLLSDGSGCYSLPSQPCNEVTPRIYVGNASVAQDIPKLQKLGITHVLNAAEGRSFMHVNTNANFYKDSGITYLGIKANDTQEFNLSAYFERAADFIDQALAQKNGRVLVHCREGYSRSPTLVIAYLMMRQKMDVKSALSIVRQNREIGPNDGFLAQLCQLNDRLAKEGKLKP
Test [13] can be described thus: viability loss in HeLa cells – cytotoxicity control for MgcRacGAP inhibitor project, dose response (AID 624300). Format: functional.
Another test concerns the target Nonstructural protein 1 (Influenza A virus, UniProt Q194T2). Format: functional, Influenza A virus (A/California/07/2009(H1N1)).
Test [14] is described as follows: viability of PTEN-deleted HCT116 cells – cell-based, HCT116 PTEN knockout, dose response (AID 1047).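 Note: HCT116 colon tumor cells with PTEN knocked out; cells exposed to compound for 60 hours before readout; potency for loss of cell viability measured by luminescence.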 The class given is functional.
For test [15], the target named is T3, Mannose-6-phosphate isomerase (Homo sapiens, UniProt P34949).
T3 sequence (P34949 whole entry): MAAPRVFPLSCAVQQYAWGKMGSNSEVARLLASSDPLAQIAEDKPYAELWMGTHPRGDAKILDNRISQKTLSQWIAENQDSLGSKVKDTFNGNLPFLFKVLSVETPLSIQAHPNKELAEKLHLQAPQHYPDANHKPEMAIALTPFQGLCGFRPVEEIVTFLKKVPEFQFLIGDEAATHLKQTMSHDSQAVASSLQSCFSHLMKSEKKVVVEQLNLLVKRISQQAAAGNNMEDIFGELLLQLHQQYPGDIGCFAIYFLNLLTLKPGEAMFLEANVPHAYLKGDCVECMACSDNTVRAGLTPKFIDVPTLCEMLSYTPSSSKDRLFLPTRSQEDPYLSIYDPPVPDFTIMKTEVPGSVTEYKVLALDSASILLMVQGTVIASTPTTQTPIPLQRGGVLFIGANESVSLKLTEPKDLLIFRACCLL
Kind of test: MPI inhibition at elevated mannose 6-phosphate – biochemical, fluorescence intensity, high mannose 6-phosphate, primary screen (AID 1220).

The target in test [16] is T4, Heat shock factor protein 1 (Mus musculus, UniProt P38532).
T4 sequence (P38532 whole entry): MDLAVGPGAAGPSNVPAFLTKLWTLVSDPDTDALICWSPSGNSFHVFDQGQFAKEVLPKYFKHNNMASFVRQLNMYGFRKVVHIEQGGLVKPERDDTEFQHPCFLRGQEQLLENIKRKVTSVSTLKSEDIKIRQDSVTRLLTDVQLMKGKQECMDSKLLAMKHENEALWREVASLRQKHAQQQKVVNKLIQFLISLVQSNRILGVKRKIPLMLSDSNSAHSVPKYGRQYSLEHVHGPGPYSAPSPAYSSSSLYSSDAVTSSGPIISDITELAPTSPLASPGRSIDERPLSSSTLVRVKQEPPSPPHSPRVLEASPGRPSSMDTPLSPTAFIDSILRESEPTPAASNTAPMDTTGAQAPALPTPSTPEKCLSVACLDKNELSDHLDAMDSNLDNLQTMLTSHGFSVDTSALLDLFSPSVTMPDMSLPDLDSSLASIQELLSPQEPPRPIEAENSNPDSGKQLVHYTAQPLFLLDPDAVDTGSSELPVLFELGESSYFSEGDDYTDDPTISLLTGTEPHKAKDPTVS
In words: enhancement of HSF1-driven luciferase signal – cell-based, NIH3T3, luminescence, dose retest, confirmation (AID 435004).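 Note: stress induced by proteasome inhibitor MG132 added 30 min after compound; luciferase reporter driven by HSF1 response element in NIH3T3 cells; actives raise luminescence as potentiators of the MG132 stress response.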 Format: functional.

The next test deals with MDCK. In words: antiviral activity against H1N1 influenza, dose response, cell-based, strain KY136 (AID 540257). Format: functional. The settings on record: Canis lupus familiaris.
Test [17] concerns the target Neurotensin receptor type 1 (Homo sapiens, UniProt P30989). Format: functional.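 Note: Image-based confirmatory dose-response assay measuring agonist activity at NTR1; NTR1-expressing U2OS osteosarcoma cells imaged for beta-arrestin GFP spot formation; agonist potency where compounds increase beta-arrestin recruitment.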
Test [18] in a line: viability of HCT116 lacking mutant beta-catenin – cell-based, human colon tumor, dose response (AID 1045).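 Note: HCT116 colon tumor cells with beta catenin knocked out; cells exposed to compound for 60 hours.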 The class given is functional.
For test [19], the target named is T5, Rac GTPase-activating protein 1 (Homo sapiens, UniProt Q9H0H5).
T5 sequence (Q9H0H5 whole entry): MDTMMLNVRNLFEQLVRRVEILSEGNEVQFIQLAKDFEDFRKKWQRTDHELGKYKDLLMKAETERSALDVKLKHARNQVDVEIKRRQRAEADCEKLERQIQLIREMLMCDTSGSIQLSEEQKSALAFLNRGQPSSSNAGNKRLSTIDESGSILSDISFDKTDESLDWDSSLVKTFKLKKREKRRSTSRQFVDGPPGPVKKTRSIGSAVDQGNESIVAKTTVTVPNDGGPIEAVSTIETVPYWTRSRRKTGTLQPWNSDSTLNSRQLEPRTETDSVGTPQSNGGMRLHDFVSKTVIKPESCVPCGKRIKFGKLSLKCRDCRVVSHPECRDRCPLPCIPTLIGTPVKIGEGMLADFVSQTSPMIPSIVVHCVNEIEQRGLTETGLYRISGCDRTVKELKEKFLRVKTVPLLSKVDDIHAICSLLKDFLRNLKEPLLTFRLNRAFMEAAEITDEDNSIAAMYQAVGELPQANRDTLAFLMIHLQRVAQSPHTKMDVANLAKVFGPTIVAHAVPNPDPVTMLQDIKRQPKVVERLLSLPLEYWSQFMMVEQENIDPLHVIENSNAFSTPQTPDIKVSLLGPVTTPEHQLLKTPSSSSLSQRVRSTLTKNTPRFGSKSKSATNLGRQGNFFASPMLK
Kind of test: blockers of MgcRacGAP-driven Rac1 GTP hydrolysis – biochemical, ADP Hunter fluorescence, primary and confirmatory, confirmation (AID 624330). The class given is functional.

In test [20] the target is CAAX prenyl protease 2 (Saccharomyces cerevisiae S288c, UniProt Q03530). Format: biochemical.
Chain of CAAX prenyl protease 2 (Saccharomyces cerevisiae S288c, UniProt Q03530) (Q03530 whole entry): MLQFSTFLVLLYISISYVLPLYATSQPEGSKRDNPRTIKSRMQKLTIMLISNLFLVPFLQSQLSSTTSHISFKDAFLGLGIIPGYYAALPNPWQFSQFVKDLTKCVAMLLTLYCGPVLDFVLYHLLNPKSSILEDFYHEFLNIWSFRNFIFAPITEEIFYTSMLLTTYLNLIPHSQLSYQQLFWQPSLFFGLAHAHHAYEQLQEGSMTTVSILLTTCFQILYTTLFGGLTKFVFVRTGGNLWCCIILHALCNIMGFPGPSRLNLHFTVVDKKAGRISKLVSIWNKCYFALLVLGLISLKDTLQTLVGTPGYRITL
In test [21] the target is CAAX prenyl protease 2 (Homo sapiens, UniProt Q9Y256). In words: inhibition of Ras-converting CAAX protease Rce1 – biochemical, yeast membranes, quenched-peptide fluorescence, cherry-pick, dose response (AID 588849).
Chain of CAAX prenyl protease 2 (Homo sapiens, UniProt Q9Y256) (Q9Y256 whole entry): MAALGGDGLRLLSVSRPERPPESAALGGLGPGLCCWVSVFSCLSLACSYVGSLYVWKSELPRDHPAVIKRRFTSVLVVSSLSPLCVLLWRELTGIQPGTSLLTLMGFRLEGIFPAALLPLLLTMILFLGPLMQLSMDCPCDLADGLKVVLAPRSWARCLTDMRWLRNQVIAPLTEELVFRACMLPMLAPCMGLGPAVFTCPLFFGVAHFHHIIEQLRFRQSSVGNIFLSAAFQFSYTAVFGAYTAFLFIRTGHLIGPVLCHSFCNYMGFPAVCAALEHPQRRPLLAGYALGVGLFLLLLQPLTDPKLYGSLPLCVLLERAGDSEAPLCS
Test [22] concerns the target Dual specificity protein kinase CLK1 (Homo sapiens, UniProt P49759). Kind of test: inhibition of human CLK1 activity – biochemical, cherry-picked samples, selectivity assay for Dyrk1A inhibitor project, dose response (AID 588811).

The source made the active and inactive calls.

Chain of Neurotensin receptor type 1 (P30989 whole entry): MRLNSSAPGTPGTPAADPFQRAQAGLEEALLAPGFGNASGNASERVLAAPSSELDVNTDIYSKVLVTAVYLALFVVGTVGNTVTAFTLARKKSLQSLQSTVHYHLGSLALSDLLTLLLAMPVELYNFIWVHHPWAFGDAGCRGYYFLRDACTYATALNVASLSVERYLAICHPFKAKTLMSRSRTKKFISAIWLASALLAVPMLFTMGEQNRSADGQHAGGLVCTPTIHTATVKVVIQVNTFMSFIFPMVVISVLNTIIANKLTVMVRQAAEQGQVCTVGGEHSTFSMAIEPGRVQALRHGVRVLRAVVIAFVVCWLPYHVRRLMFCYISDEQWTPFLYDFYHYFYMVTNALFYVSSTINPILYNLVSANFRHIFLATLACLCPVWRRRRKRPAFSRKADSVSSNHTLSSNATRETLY
Chain of Delta-type opioid receptor (P41143 whole entry): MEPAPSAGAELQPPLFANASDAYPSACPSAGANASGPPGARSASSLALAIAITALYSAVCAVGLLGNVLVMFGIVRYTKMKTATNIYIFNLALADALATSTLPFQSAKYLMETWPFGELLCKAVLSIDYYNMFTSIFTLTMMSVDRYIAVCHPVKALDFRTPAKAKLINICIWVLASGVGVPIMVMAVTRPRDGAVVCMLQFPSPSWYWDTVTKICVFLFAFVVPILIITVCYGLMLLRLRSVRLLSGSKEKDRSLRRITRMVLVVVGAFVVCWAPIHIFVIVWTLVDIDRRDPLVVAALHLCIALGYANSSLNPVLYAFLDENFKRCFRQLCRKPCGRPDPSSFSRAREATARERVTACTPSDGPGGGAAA
Chain of Nonstructural protein 1 (Q194T2 whole entry): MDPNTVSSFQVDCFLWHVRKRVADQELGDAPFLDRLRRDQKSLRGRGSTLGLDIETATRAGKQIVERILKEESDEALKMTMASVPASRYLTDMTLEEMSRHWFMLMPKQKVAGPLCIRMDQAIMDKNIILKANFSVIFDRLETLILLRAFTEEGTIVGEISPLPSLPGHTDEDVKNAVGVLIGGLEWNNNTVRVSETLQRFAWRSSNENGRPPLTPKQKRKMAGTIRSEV
Chain of Dual specificity protein kinase CLK1 (P49759 whole entry): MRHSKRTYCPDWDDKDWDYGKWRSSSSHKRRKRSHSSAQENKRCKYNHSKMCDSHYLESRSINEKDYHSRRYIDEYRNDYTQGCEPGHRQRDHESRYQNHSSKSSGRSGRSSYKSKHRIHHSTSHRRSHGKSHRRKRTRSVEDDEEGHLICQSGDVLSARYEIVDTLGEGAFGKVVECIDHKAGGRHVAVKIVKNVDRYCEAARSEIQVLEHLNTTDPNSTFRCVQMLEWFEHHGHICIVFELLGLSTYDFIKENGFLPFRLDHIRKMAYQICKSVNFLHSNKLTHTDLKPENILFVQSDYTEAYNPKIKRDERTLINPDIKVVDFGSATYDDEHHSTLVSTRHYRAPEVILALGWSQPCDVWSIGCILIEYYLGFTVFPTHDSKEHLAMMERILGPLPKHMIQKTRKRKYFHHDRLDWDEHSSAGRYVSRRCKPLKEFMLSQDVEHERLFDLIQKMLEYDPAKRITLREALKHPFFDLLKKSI
Chain of 5-hydroxytryptamine receptor 5A (P47898 whole entry): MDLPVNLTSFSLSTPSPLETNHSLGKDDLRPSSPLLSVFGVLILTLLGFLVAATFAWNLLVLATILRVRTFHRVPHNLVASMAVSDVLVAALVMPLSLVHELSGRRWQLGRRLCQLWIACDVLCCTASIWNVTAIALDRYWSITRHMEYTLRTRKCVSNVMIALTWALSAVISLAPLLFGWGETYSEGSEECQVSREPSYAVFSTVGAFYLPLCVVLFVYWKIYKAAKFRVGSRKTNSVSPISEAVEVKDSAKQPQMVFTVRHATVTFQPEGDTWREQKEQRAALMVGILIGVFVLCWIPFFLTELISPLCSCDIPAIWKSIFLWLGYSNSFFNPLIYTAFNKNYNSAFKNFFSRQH

On to `CN(C)CCCN(C(=O)c1ccc(S(=O)(=O)N(C)C2CCCCC2)cc1)c1nc2ccc(F)cc2s1.Cl`, for which the EC50 is 1.88 µM (active) in test [1]; > 92.5 µM (inactive) in [2]; > 0.3805 µM in test [3]; 4.85 µM (active) at Mu-type opioid receptor; 69.2 µM (inactive) in test [4].
With `COC(=O)c1c(-c2cc(OC)c(OC)c(OC)c2)c2ccc(OCc3ccccn3)cc2c(=O)n1-c1ccc(N)cc1`, the AC50 in [5] was 5.62 µM (inconclusive).
As to `CC(=O)c1ccc(S(=O)(=O)N2CCN(C(=O)/C=C/c3ccc4ccccc4n3)CC2)cc1`, the EC50 in test [6] is 10.3 µM (active); in [8] it was 13.4 µM (active); in test [9], 11.8 µM (active). Moreover, the AC50 is > 35 µM (active) with A-375 [7], 12 µM (active) in [10] and > 35 µM (active) in the test on A-375 [11].
In the case of `Cn1cnnc1SCC(=O)Nc1ccc2nc(SCC(=O)c3ccccc3)sc2c1`, in test [12], the IC50 was > 66 µM (inactive).
On to `COC(=O)c1ccc2c(c1)C(C)(C)C(/C=C/c1ccc(O)cc1)=[N+]2C`, for which, in test [13], the CC50 is 35.1 µM (active). For the same compound, the IC50 at Nonstructural protein 1 is 20.2 µM (active); in test [15], > 50 µM (not active); with MDCK, 5.29 µM (active); in test [19], 29.5 µM (active). Also, the concentration for a half-maximal effect (EC50) in test [14] is 2.06 µM (active); in [16], > 260 µM (inconclusive); in test [17], 7.59 µM (active); in test [18], 2.15 µM (active).
For the compound `CC1Oc2ccccc2C=C1/C=N/NC(=O)[C@@H](C)NC(=O)OC(C)(C)C` (stereo not given in full), the AC50 at CAAX prenyl protease 2 [20] was 57 µM (active); at CAAX prenyl protease 2 [21] it was 23.1 µM (active).
Turning to `Clc1ccc(CNc2nccc(-c3ccc4c(c3)OCCO4)n2)cc1Cl`, the AC50 in test [22] was 0.0206 µM (active).

The values are drawn from ChEMBL document CHEMBL1201862, “PubChem BioAssay data set” (2004).
